Legend:
[1] = molecular target: Acetylcholinesterase (Electrophorus electricus, UniProt O42275); experiment: Inhibition of electric eel AChE using acetylthiocholine iodide as substrate incubated for 6 mins followed by substrate addition by DTNB reagent based Ellman's method
[2] = molecular target: Cholinesterase (Equus caballus) (UniProt P81908); experiment: Inhibition of horse serum BuChE using butyrylthiocholine iodide as substrate at 10 uM incubated for 6 mins followed by substrate addition by DTNB reagent based Ellman's method
[3] = molecular target: T1, Amine oxidase [flavin-containing] A (Homo sapiens, UniProt P21397); experiment: Inhibition of recombinant human MAO-A using p-tyramine as substrate incubated for 15 mins followed by substrate addition and measured for 15 to 20 mins by Amplex Red assay
T1 sequence (P21397 whole entry): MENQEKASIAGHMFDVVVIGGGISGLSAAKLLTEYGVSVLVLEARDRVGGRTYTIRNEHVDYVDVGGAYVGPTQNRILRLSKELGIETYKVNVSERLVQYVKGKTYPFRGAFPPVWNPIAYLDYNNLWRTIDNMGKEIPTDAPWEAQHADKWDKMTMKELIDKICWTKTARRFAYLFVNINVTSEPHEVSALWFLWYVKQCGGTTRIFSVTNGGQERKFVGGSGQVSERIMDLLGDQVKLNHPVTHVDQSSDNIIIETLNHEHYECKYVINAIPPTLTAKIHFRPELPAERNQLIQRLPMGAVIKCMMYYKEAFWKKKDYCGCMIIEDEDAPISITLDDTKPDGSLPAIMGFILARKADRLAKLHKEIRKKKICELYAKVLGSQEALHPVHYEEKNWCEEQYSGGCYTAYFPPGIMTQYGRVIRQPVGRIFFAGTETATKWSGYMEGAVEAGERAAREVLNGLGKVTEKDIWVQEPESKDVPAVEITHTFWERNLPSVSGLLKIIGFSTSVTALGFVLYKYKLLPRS

[4] = molecular target: T2, Amine oxidase [flavin-containing] B (Homo sapiens, UniProt P27338); experiment: Inhibition of recombinant human MAO-B using p-tyramine as substrate incubated for 15 mins followed by substrate addition and measured upto 20 mins by Amplex Red assay
T2 sequence (P27338 whole entry): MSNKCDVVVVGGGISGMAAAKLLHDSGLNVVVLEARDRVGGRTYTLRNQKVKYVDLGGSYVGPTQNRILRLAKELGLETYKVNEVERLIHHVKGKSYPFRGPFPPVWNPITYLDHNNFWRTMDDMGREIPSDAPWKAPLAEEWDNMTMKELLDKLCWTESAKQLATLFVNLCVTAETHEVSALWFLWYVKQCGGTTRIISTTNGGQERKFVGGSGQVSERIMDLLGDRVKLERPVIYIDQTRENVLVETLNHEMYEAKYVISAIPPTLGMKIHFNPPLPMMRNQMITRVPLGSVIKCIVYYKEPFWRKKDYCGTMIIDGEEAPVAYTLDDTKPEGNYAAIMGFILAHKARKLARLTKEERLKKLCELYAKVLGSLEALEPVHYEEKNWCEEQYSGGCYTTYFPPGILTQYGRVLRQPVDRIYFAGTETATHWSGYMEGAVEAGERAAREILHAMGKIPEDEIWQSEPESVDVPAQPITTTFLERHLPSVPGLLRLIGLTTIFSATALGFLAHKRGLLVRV

[5] = molecular target: T1, Amine oxidase [flavin-containing] A; experiment: Inhibition of recombinant human MAO-A using kynuramine as substrate incubated for 20 mins by fluorescence spectrophotometric assay
[6] = molecular target: T2, Amine oxidase [flavin-containing] B; experiment: Inhibition of recombinant human MAO-B using kynuramine as substrate incubated for 20 mins by fluorescence spectrophotometric assay
[7] = molecular target: T2, Amine oxidase [flavin-containing] B; experiment: Competitive inhibition of recombinant human MAO-B using kynuramine as substrate incubated for 20 mins by Lineweaver-Burk plot analysis
[8] = molecular target: T1, Amine oxidase [flavin-containing] A; experiment: Inhibition of recombinant human MAO-A using kynuramine as substrate incubated for 10 mins followed by substrate addition and measured for 20 mins by Fluorescence microplate reader assay
[9] = molecular target: T2, Amine oxidase [flavin-containing] B; experiment: Inhibition of human MAO-B
[10] = molecular target: T2, Amine oxidase [flavin-containing] B; experiment: Inhibition of MAO-B (unknown origin) using kynuramine as substrate preincubated for 10 mins followed by substrate addition and measured after 20 mins by fluorescence microplate reader assay
[11] = molecular target: T3, Acetylcholinesterase (Mus musculus, UniProt P21836); experiment: Inhibition of mouse AChE using acetylthiocholine iodide as substrate incubated for 20 mins by DTNB reagent based Ellman's method
T3 sequence (P21836 whole entry): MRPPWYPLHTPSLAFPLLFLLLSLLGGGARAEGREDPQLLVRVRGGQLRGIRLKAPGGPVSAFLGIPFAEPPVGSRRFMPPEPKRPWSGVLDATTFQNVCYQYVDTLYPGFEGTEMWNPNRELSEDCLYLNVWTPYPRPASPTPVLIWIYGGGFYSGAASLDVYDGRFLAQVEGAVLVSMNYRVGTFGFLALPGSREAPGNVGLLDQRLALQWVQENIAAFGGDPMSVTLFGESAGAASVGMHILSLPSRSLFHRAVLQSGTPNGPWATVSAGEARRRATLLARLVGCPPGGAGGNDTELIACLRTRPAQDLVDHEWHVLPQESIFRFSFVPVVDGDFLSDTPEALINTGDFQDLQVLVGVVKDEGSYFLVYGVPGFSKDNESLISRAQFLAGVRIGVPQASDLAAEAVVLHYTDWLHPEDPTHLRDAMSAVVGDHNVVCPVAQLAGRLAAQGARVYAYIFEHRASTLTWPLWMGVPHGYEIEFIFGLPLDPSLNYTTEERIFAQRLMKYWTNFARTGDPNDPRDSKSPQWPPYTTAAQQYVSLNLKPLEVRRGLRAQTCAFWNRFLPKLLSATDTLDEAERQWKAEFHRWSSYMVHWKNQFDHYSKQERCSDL

[12] = molecular target: T2, Amine oxidase [flavin-containing] B; experiment: Inhibition of human MAO-B using benzylamine as substrate preincubated for 15 mins followed by substrate addition and measured after 15 mins by fluorescence assay
[13] = Oral bioavailability in ICR mouse at 10 mg/kg and measured after 24 hrs by HPLC analysis; type: ADME, organism-based; settings: in vivo
[14] = molecular target: T2, Amine oxidase [flavin-containing] B; experiment: Inhibition of MAO-B (unknown origin) using as tyramine as substrate by Ampliflu red reagent based fluorometric method
[15] = molecular target: T2, Amine oxidase [flavin-containing] B; experiment: Inhibition of recombinant human MAO-B using tyramine hydrochloride as substrate preincubated for 30 mins followed by substrate addition and measured after 30 mins by fluorescence assay
[16] = molecular target: T4, Amine oxidase [flavin-containing] B (Rattus norvegicus, UniProt P19643); experiment: Inhibition of rat brain mitochondria MAO-B using p-tyramine as substrate incubated for 15 mins followed by substrate addition and measured for 15 by microplate fluorescence reader analysis
T4 sequence (P19643 whole entry): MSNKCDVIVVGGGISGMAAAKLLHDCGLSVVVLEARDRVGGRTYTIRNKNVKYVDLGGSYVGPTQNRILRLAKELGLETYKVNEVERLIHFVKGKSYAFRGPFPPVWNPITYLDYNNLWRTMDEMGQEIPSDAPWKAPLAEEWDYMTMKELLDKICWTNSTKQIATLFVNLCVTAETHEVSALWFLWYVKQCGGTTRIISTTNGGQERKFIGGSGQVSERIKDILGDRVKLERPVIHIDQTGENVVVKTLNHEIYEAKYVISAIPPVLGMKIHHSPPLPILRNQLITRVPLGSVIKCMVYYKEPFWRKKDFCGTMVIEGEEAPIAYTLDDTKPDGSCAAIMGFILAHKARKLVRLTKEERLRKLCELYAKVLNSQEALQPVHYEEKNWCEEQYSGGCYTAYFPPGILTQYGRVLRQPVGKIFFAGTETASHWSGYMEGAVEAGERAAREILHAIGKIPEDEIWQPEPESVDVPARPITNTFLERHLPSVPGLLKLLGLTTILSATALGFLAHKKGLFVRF

[17] = molecular target: T1, Amine oxidase [flavin-containing] A; experiment: Inhibition of MAO-A (unknown origin) using kynuramine as substrate preincubated for 10 mins followed by substrate addition and measured after 20 mins by fluorescence microplate reader assay
[18] = molecular target: Acetylcholinesterase (Homo sapiens, UniProt P22303); experiment: Inhibition of human AChE using acetylcholine as substrate incubated for 5 mins followed by substrate addition by Ellman's method
[19] = molecular target: T2, Amine oxidase [flavin-containing] B; experiment: Inhibition of recombinant human MAO-B using p-tyramine as substrate preincubated for 15 mins followed by substrate addition and measured after 20 mins by fluorescence assay
[20] = molecular target: T1, Amine oxidase [flavin-containing] A; experiment: Inhibition of recombinant human MAO-A using p-tyramine as substrate incubated for 10 mins followed by substrate addition and measured 20 mins by fluorescence assay
[21] = molecular target: T2, Amine oxidase [flavin-containing] B; experiment: Inhibition of recombinant human MAO-B using p-tyramine as substrate incubated for 10 mins followed by substrate addition and measured 20 mins by fluorescence assay
[22] = organism: Homo sapiens; experiment: Selectivity index, ratio of IC50 for inhibition of recombinant human MAO-B to IC50 for inhibition of recombinant human MAO-A

Chain of Acetylcholinesterase (Electrophorus electricus, UniProt O42275) (O42275 whole entry): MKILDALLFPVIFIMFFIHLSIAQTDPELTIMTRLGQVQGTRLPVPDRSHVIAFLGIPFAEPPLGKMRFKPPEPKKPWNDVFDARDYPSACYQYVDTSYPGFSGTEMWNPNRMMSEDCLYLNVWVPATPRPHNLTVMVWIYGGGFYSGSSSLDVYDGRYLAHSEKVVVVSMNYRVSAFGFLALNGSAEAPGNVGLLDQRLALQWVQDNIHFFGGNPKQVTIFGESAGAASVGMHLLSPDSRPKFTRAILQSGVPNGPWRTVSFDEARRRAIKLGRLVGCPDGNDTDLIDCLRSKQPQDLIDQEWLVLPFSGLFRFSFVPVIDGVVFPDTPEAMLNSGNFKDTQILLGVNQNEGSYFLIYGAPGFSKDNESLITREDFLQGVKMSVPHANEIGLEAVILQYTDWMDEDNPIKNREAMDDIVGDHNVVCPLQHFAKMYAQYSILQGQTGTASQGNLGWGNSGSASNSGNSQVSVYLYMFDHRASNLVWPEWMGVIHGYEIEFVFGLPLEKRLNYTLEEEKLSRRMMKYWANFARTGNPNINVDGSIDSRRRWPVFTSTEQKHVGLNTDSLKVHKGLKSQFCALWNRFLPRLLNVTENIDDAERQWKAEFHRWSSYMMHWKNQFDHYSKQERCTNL
Chain of Acetylcholinesterase (Homo sapiens, UniProt P22303) (P22303 whole entry): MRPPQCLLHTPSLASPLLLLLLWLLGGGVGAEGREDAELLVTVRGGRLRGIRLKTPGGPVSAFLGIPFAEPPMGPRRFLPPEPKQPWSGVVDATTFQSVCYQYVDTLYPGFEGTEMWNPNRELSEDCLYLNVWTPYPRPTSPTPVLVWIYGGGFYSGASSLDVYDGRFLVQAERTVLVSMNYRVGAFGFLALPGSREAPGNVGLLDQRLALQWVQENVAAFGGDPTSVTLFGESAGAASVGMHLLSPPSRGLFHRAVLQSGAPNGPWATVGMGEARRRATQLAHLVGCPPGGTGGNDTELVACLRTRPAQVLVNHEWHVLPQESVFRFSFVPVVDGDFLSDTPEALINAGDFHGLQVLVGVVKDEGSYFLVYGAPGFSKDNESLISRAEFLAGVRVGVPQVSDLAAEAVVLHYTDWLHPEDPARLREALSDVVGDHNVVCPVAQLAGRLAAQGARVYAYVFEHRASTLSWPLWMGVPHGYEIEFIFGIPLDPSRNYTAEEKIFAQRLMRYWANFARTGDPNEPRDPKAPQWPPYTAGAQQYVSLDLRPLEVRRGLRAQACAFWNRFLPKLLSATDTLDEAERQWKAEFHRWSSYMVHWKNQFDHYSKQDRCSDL
Chain of Cholinesterase (Equus caballus) (P81908 whole entry): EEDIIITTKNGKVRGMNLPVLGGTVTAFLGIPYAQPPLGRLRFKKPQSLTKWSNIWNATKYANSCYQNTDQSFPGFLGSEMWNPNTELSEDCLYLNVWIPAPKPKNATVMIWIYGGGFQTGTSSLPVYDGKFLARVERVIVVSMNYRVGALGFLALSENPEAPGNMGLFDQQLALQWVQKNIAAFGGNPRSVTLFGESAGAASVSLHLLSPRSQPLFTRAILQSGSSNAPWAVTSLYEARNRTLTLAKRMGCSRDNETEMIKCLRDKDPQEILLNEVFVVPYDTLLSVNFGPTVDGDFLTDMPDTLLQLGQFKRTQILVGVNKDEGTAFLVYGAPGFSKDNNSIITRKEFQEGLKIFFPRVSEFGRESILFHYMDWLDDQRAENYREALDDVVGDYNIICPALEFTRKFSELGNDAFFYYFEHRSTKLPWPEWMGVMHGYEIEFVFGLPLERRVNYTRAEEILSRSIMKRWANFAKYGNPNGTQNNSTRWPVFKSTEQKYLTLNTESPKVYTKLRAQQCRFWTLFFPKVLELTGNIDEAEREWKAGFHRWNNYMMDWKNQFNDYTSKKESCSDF

Cc1c(Cl)c(=O)oc2cc(OCCCSC(=S)N3C(C)CCCC3C)ccc12 (centres undefined)
IC50 [1]: 44 nM
inhibition [2]: 23.3%
IC50 [3]: 5850 nM
IC50 [4]: 101 nM

O=C1Oc2ccccc2C(=O)/C1=C/NCc1ccccc1
IC50 [5]: 77900 nM
IC50 [6]: 638 nM
Ki [7]: 94000 nM

CCOc1ccc([N+](=O)[O-])c(N/N=C/c2ccccn2)n1
IC50 [8]: 9520 nM

O=c1c(O)c(-c2ccc(O)c(O)c2)oc2cc(O)cc(O)c12 [QUERCETIN]
IC50 [8]: 1520 nM

O=C1CCC2(O)c3c(ccc(O)c31)-c1ccc(O)c3c1C2C1OC1C3=O (centres undefined)
IC50 [9]: > 80000 nM

CCOc1ccc([N+](=O)[O-])c(N/N=C/c2cccn2C)n1
IC50 [8]: 6120 nM

CCOc1ccc([N+](=O)[O-])c(N/N=C/c2ccco2)n1
IC50 [10]: 10600 nM

C#CCNCc1ccc2c(c1)ncn2-c1cc(NC(=S)NCC)ncn1
IC50 [11]: 32 nM
IC50 [12]: 2120 nM
bioavailability [13]: 45.5%

Cc1c(/N=C/c2cccc([N+](=O)[O-])c2)c(=O)n(-c2ccccc2)n1C
IC50 [14]: 54 nM

CC1CCCCN1c1ccc(/C=N/Nc2ccccc2)cc1 (centres undefined)
IC50 [15]: 342 nM

COc1ccc(/C(C)=N/NC(=O)C2CC(c3ccccc3)=NO2)cc1OC (centres undefined)
IC50 [16]: 5.9 nM

CCOc1ccc([N+](=O)[O-])c(N/N=C/c2ccc(C(F)(F)F)cc2)n1
IC50 [8]: 13100 nM

CCOc1ccc([N+](=O)[O-])c(N/N=C/c2ccc(O)cc2)n1
IC50 [17]: 6250 nM
IC50 [10]: 9300 nM

Cc1c(C)c2c(c(C)c1O)CCC(C)(C(=O)NCCC1CCN(Cc3ccccc3F)CC1)O2 (centres undefined)
IC50 [18]: 540 nM
IC50 [19]: 4300 nM

CN(C)c1ccc(/C=C/C(=O)c2cc(Cl)sc2Cl)cc1
IC50 [20]: 1990 nM
IC50 [21]: 40 nM
Ratio IC50 [22]: 0.02

COc1cc(-c2cc(=O)c3c(O)cc(O)cc3o2)cc(OC)c1O [TRICIN]
IC50 [8]: 250 nM

Cc1c(Cl)c(=O)oc2cc(OCCCCSC(=S)N3C(C)CCCC3C)ccc12 (centres undefined)
IC50 [1]: 114 nM
IC50 [4]: 101 nM
